The subject of data set [1] is recombinant NL4-3 virus (Renilla luciferase reporter) in MT-2 cells. The data set can be described thus: HIV cell culture assay (antiviral activity, luciferase readout in infected MT-2 cells). The data set is classed as cell-based. The following applies: NL43. The procedure:
HIV cell culture assay—MT-2 cells, 293T cells and the proviral DNA clone of NL4-3 virus were obtained from the NIH AIDS Research and Reference Reagent Program. MT-2 cells were propagated in RPMI 1640 media supplemented with 10% heat inactivated fetal bovine serum (FBS), […]. The 293T cells were propagated in DMEM media supplemented with 10% heat inactivated FBS, […]. A recombinant NL4-3 proviral clone, in which a section of the nef gene was replaced with the Renilla luciferase gene, was used to make the reference virus used in these studies. The recombinant virus was prepared through transfection of the recombinant NL4-3 proviral clone into 293T cells using Transit-293 Transfection Reagent from Mirus Bio LLC (Madison, Wis.). Supernatent was harvested after 2-3 days and the amount of virus present was titered in MT-2 cells using luciferase enzyme activity as a marker by measuring luciferase enzyme activity. Luciferase was quantitated using the EnduRen Live Cell Substrate from Promega (Madison, Wis.). Antiviral activities of compounds toward the recombinant virus were quantified by measuring luciferase activity in MT-2 cells infected for 4-5 days with the recombinant virus in the presence of serial dilutions of the compound.
The 50% effective concentration (EC50) was calculated by using the exponential form of the median effect equation where (Fa)=1/[1+(EC50/drug conc.)m] (Johnson V A, Byington RT. Infectivity Assay. In Techniques in HIV Research, ed. Aldovini A, Walker B D. 71-76. New York: Stockton Press. 1990). The 50% inhibitory concentration (EC50) was calculated by using the exponential form of the median effect equation where percent inhibition=1/[1+(EC50/drug concentration)m], where m is a parameter that reflects the slope of the concentration-response curve.

Data set [2] is described as follows: Compound cytotoxicity, XTT-based colorimetric assay. The format is cell-based. The conditions noted are these: human; uninfected MT2 cells, day 4, XTT; read-out: CC50. How it is done: Compound cytotoxicity and the corresponding CC50 values were determined using the same protocol as described in the antiviral assay except that uninfected cells were used. Cytotoxicity was assessed on day 4 in uninfected MT2 cells by using a XTT (2,3-bis [2-Methoxy-4-nitro-5-sulfophenyl]-2H-tetrazolium-5-carboxyanilide inner salt)-based colorimetric assay (Sigma-Aldrich, St Louis, Mo.).
(In general: Tetrazolium dyes change colour on reduction, which living cells bring about.)

One may read the EC50 as the concentration that produces a half-maximal response. The term CC50 denotes the concentration at which the toxic effect on the cells reaches its halfway point.

Bounds are passed on as bounds.

Regarding `Cn1nc(NS(C)(=O)=O)c2c(Cl)ccc(-n3c([C@H](Cc4cc(F)cc(F)c4)NC(=O)Cn4nc(C(F)F)c5c4C(F)(F)[C@@H]4C[C@H]54)nc4nc(N5CCOCC5)ccc4c3=O)c21` (atropisomer, axis not shown; (P)) [Example 23, N—((S)-1-((3P)-3-(4-chloro-1-methyl-3-(methylsulfonamido)-1H-indazol-7-yl)-7-morpholino-4-oxo-3,4-dihydropyrido[2,3-d]pyrimidin-2-yl)-2-(3,5-difluorophenyl)ethyl)-2-((3bS,4aR)-3-(difluoromethyl)-5,5-difluoro-3b,4,4a,5-tetrahydro-1H-cyclopropa[3,4]cyclopenta[1,2-c]pyrazol-1-yl)acetamide], in data set [1], the EC50 is 0.058 nM. Further, the CC50 at 4 days in data set [2] was more than 100 nM.
On to `C[C@@H]1CN(c2ccc3c(=O)n(-c4ccc(Cl)c5c(NS(C)(=O)=O)nn(CC(F)F)c45)c([C@H](Cc4cc(F)cc(F)c4)NC(=O)Cn4nc(C(F)(F)F)c5c4C(F)(F)[C@@H]4C[C@H]54)nc3n2)C[C@H](C)O1` (atropisomer, axis not shown; (aR)) [Example 4, N—((S)-1-(3-(4-chloro-1-(2,2-difluoroethyl)-3-(methylsulfonamido)-1H-indazol-7-yl)-7-((2S,6R)-2,6-dimethylmorpholino)-4-oxo-3,4-dihydropyrido[2,3-d]pyrimidin-2-yl)-2-(3,5-difluorophenyl)ethyl)-2-((3bS,4aR)-5,5-difluoro-3-(trifluoromethyl)-3b,4,4a,5-tetrahydro-1H-cyclopropa[3,4]cyclopenta[1,2-c]pyrazol-1-yl)acetamide], for which the EC50 in data set [1] is 0.031 nM. In addition, the CC50 at 4 days in data set [2] was more than 500 nM.
Regarding `Cn1nc(NS(C)(=O)=O)c2c(Cl)ccc(-n3c([C@H](Cc4cc(F)cc(F)c4)NC(=O)Cn4nc(C(F)F)c5c4C(F)(F)[C@@H]4C[C@H]54)nc4nc(N5CC(C)(C)OC(C)(C)C5)ccc4c3=O)c21` (atropisomer, axis not shown; (P)) [Example 26, N—((S)-1-((3P)-3-(4-chloro-1-methyl-3-(methylsulfonamido)-1H-indazol-7-yl)-4-oxo-7-(2,2,6,6-tetramethylmorpholino)-3,4-dihydropyrido[2,3-d]pyrimidin-2-yl)-2-(3,5-difluorophenyl)ethyl)-2-((3bS,4aR)-3-(difluoromethyl)-5,5-difluoro-3b,4,4a,5-tetrahydro-1H-cyclopropa[3,4]cyclopenta[1,2-c]pyrazol-1-yl)acetamide], in data set [1], the EC50 stood at 0.023 nM. Besides, the CC50 at 4 days in data set [2] is more than 100 nM.
Consider `Cn1nc(NS(C)(=O)=O)c2c(Cl)ccc(-n3c([C@H](Cc4cc(F)cc(F)c4)NC(=O)Cn4nc(C(F)F)c5c4C(F)(F)[C@@H]4C[C@H]54)nc4nc(N(CCC(F)(F)F)C5CCC5)ccc4c3=O)c21` (atropisomer, axis not shown; (P)) [Example 13, N—((S)-1-((3P)-3-(4-chloro-1-methyl-3-(methylsulfonamido)-1H-indazol-7-yl)-7-(cyclobutyl(3,3,3-trifluoropropyl)amino)-4-oxo-3,4-dihydropyrido[2,3-d]pyrimidin-2-yl)-2-(3,5-difluorophenyl)ethyl)-2-((3bS,4aR)-3-(difluoromethyl)-5,5-difluoro-3b,4,4a,5-tetrahydro-1H-cyclopropa[3,4]cyclopenta[1,2-c]pyrazol-1-yl)acetamide], for which the EC50 in data set [1] amounted to 0.068 nM. The CC50 at 4 days in data set [2] was more than 100 nM.

The values are drawn from patent publication US20210395248A1, “INHIBITORS OF HUMAN IMMUNODEFICIENCY VIRUS REPLICATION” (ViiV HEALTHCARE UK (NO.5) LIMITED, priority 2018, published 2021).
